# Test: Stability of the active substance throughout the process by high performance liquid chromatography
# Format: physicochemical
# Details: HPLC; purity/titre and related substance profile compared with the starting product, both tests
smiles,measurement,value
CO[C@H]1C[C@@H]2CC[C@@H](C)[C@@](O)(O2)C(=O)C(=O)N2CCCC[C@H]2C(=O)O[C@H]([C@H](C)C[C@@H]2CC[C@@H](O)[C@H](OC)C2)CC(=O)[C@H](C)/C=C(\C)[C@@H](O)[C@@H](OC)C(=O)[C@H](C)C[C@H](C)/C=C/C=C/C=C/1C [sirolimus],stability throughout the process,good stability

# Reference: patent US8765184B2 (Stanipharm, priority 2009, dated 2014)
